Read-outs that look alike come from different tables or passages of the source.
Key:
[1] = test system: human lung A549 cancer cell lines; test: MTT cytotoxicity assay, lung cancer A549 cells; format: cell-based; settings: for IC50: Homo sapiens, A549, MTT, 72 h, 0.19–100 μM, means of at least three independent experiments in duplicates, read-out: A549 Cells IC50
Procedure: (§1) Adenocarcinomic human alveolar basal epithelial (A549) and human hepatoma (HepG2) cancer cell lines, immortalized normal human liver (LO2), human bronchial epithelial (BEAS-2B cells were purchased from [NT], Manassas, VA, USA). […] Invitrogen, Waltham, MA, USA). All cells were incubated at 37 °C in a 5% humidified CO2 incubator). All test compounds were dissolved in DMSO at a final concentration of 50 mM and stored at -20 °C before use. Cytotoxicity was assessed by the MTT (5 mg/mL) assay, as described previously. Briefly, 5 × 10^3 cells per well were seeded in 96-well plates before drug treatments. […] Cells without drug treatment were used as controls. Subsequently, 10 μL of 5 mg/mL MTT solution was added to each well and incubated at 37 °C for 4 h, followed by the addition of 100 μL solubilization buffer (12 mM HCl in a solution of 10% SDS) and overnight incubation. The absorbance, A570 nm, was then determined in each well on the next day. The percentage of cell viability was calculated using the expression: % viability = Atreated/Acontrol × 100, and was given as cytotoxicity (Table 2 and Table 3; […]

[2] = test system: immortalized lung BEAS-2B normal cell lines; test: MTT cytotoxicity assay, normal lung BEAS-2B cells; format: cell-based; settings: Homo sapiens, MTT, 72 h, 0.19–100 μM, normal lung cells, read-out: BEAS-2B Cells IC50
Procedure: as §1

[3] = test system: human HepG2 cancer cell lines; test: MTT cytotoxicity assay, liver cancer HepG2 cells; format: cell-based; settings: for IC50: Homo sapiens, HepG2, 72 h, MTT, 72 h, 0.19–100 μM, means of at least three independent experiments in duplicates, read-out: HepG2 Cells IC50
Procedure: as §1

[4] = test system: immortalized liver LO2 normal cell lines; test: MTT cytotoxicity assay, normal liver LO2 cells; format: cell-based; settings: Homo sapiens, L02; MTT, 72 h, 0.19–100 μM; normal liver cells; read-out: LO2 Cells IC50
Procedure: as §1

[5] = test system: human lung A549 cancer cell lines; set-up: method as in PMID 24063429; settings: paclitaxel reference value; ref [80]; read-out: A549 Cells IC50; cited from earlier work
[6] = test system: immortalized lung BEAS-2B normal cell lines; set-up: method as in PMID 24063429; settings: paclitaxel reference value; ref [80]; read-out: BEAS-2B Cells IC50; cited from earlier work
[7] = test system: human HepG2 cancer cell lines; settings: paclitaxel reference value; ref [82]; read-out: HepG2 Cells IC50; cited from earlier work
[8] = test system: immortalized liver LO2 normal cell lines; settings: paclitaxel reference value; ref [82]; read-out: LO2 Cells IC50; cited from earlier work

Compound	IC50 [1]	IC50 [2]	IC50 [3]	IC50 [4]	melting point	S.I. Selectivity index lung (IC50 normal cells/IC50 cancer cells) ([1]; BEAS-2B IC50 / A549 IC50)	S.I. Selectivity index liver (IC50 normal cells/IC50 cancer cells) ([3]; LO2 IC50 / HepG2 IC50)	IC50 [5]	IC50 [6]	IC50 [7]	IC50 [8]
COc1ccc(OC)c(C2C([N+](=O)[O-])C3CCCN3C23C(=O)Nc2ccccc23)c1 (stereo not shown) [Compound 4s, 2′-(2,5-dimethoxyphenyl)-1′-nitro-1′,2′,5′,6′,7′,7a′-hexahydrospiro[indoline-3,3′-pyrrolizin]-2-one]	> 100 µM	> 100 µM	> 100 µM	> 100 µM	174 to 176 °C	–	–	–	–	–	–
COc1cccc(C2C([N+](=O)[O-])C3CCCN3C23C(=O)Nc2ccc(Br)cc23)c1 (stereo not shown) [Compound 4t, 5-bromo-2′-(3-methoxyphenyl)-1′-nitro-1′,2′,5′,6′,7′,7a′-hexahydrospiro[indoline-3,3′-pyrrolizin]-2-one]	45.2 µM	67.7 µM	46.1 µM	45.5 µM	145 to 147 °C	1.50	0.99	–	–	–	–
COc1ccc(OC)c(C2C([N+](=O)[O-])C3CCCN3C23C(=O)Nc2ccc(Br)cc23)c1 (stereo not shown) [Compound 4u, 5-bromo-2′-(2,5-dimethoxyphenyl)-1′-nitro-1′,2′,5′,6′,7′,7a′-hexahydrospiro[indoline-3,3′-pyrrolizin]-2-one]	> 100 µM	> 100 µM	> 100 µM	> 100 µM	190 to 192 °C	–	–	–	–	–	–
COc1ccc(C2C([N+](=O)[O-])C3CCCN3C23C(=O)Nc2ccccc23)cc1OC (stereo not shown) [Compound 4v, 2′-(3,4-dimethoxyphenyl)-1′-nitro-1′,2′,5′,6′,7′,7a′-hexahydrospiro[indoline-3,3′-pyrrolizin]-2-one]	> 100 µM	> 100 µM	> 100 µM	> 100 µM	175 to 177 °C	–	–	–	–	–	–
COc1ccc(C2C([N+](=O)[O-])C3CCCN3C23C(=O)Nc2ccc(Br)cc23)cc1OC (stereo not shown) [Compound 4w, 5-bromo-2′-(3,4-dimethoxyphenyl)-1′-nitro-1′,2′,5′,6′,7′,7a′-hexahydrospiro [indoline-3,3′-pyrrolizin]-2-one]	> 100 µM	> 100 µM	> 100 µM	> 100 µM	195 to 197 °C	–	–	–	–	–	–
CC(=O)O[C@H]1C(=O)[C@@]2(C)[C@H]([C@H](OC(=O)c3ccccc3)[C@]3(O)C[C@H](OC(=O)[C@H](O)[C@@H](NC(=O)c4ccccc4)c4ccccc4)C(C)=C1C3(C)C)[C@]1(OC(C)=O)CO[C@@H]1C[C@@H]2O [Paclitaxel]	–	–	–	–	–	–	–	0.003 µM	0.1 µM	0.19 ± 0.4 µM	< 0.1 µM

— publication PMC10537280, “Chemo-/Regio-Selective Synthesis of Novel Functionalized Spiro[pyrrolidine-2,3′-oxindoles] under Microwave Irradiation and Their Anticancer Activity” (Molecules, 2023)
